In patent US9572786B2, “Use of capsiate or dihydrocapsidate” (Catholic University Industry Academy Cooperation Foundation, priority 2007, dated 2017):

Legend:
T cells = experiment: Proliferation of T cells, thymidine (H3) incorporation; format: cell-based, C57/BL6 mouse; details: mouse spleen T cells; 25 uM; vs control group
Protocol: T cells were isolated from mouse spleen in order to investigate the effect of capsiate on the proliferation of T cells. Specifically, the spleen of C57/BL6 mouse was taken out and pulverized as single cells. After lysing red blood cells using an RBC lysis buffer (Sigma, USA), other cells were washed 3 times using cell culture medium (RPMI 1640 complete medium). The cell culture medium is prepared by adding 10% FBS, 10 mM HEPES, 100 μg/mL penicillin, 100 μg/mL streptomycin, 2 mM L-glutamine, 1 mM sodium pyruvate and 50 uM 2-mercaptoethanol. From the cells, only the T cells were separated using a T cell enrichment column (R&D, USA).
5×10^5 of the isolated T cells were placed on a 96-well plate and capsiate was treated at a concentration of 25 uM. Proliferation of T cells was induced by adding 0.1 μg/mL α-CD3a and 2 μg/mL α-CD28, or 1 μg/mL α-CD3a and 2 μg/mL α-CD28. The degree of cell proliferation was compared to that of the control group which was not treated with capsiate. Specifically, after culturing the T cells for 24 hours, thymidine (H3) was added at a concentration of 1 uCi per well and the T cells were harvested 16 hours later using a membrane filter (Skatron, England) and a cell harvester. The harvested T cells were lysed in LSC cocktail solution (Ultima Gold, PerkinElmer, USA) and H3's CPM value was measured using a beta counter (Packard, USA).

MMP-2 = experiment: UV-induced MMP-2 mRNA expression, RT-PCR; format: cell-based, human; details: HaCaT cells; 10, 25, 50 μM; UV 100 J/m^2; 36 hours
Protocol: The inhibition effect of capsiate on the expression of MMP-2 and MMP-9, which induce angiogenesis, was investigated through measurement of mRNA expression by RT-PCR and protein expression and activity measurement by zymography.
In order to investigate the inhibition effect of capsiate on MMP expression, 5×10^5 HaCaT cells were placed on a 60 mm Petri dish and cultured for 24 hours in DMEM containing 10% FBS. Subsequently, the cells were cultured for 24 hours in DMEM containing 1% FBS until starvation. Then, after treating with capsiate at different concentrations (10 μM, 25 μM, 50 μM) for 30 minutes, followed by washing 3 times with PBS, UV was irradiated at an intensity of 100 J/m^2. Immediately after the UV irradiation, the cells were washed again with PBS and further cultured for 36 hours in DMEM containing 1% FBS, which was treated with capsiate at the same concentration as in the pre-treatment. The degree of intracellular mRNA expression for MMP-2 and MMP-9 was measured by RT-PCR in the same manner as in Example 3. The degree of MMP expression was compared with that of the non-treated group.

MMP-9 = MMP-9 mRNA in mouse skin, RT-PCR; format: in vivo; details: mouse tissue of Example 5; normalized using GAPDH
Protocol: mRNA was extracted from the mouse tissue of each test group of Example 5 and the level of expression thereof was evaluated in order to investigate the effect of capsiate on the expression of MMP-2 and MMP-9 induced by angiogenesis and immune response.
For RNA extraction from the tissue, each mouse tissue was subjected to skin biopsy, quickly frozen in liquid nitrogen and finely ground using a mortar. RNA was extracted from the mouse tissue using Trizol (Invitrogen, USA). PCR (PTC-225 Peltier thermal cycler, MJ Research, USA) was carried out using the RNA as template and using a commercial kit (reverse transcription system, Qiagen, USA). As a result, cDNA for each test group was prepared.
RT-PCR (Rotor Gene 6 series, Corbett Research, Australia) was carried out using thus prepared cDNA as template and using MMP-2 and MMP-9 primers (Qiagen, USA). The level of mRNA expression for MMP was normalized using GAPDH. The level of expression was compared with that of the non-treated group, which was treated with acetone only.

hairless mouse = experiment: UV-induced erythema in hairless mouse; format: in vivo; details: 200 μL of 1 mM topically, UV 400, 600 and 800 J/m^2, 48 hours later
Protocol: When the skin is exposed to UV, erythema, or […] of the skin, occurs accompanied by edema, prior to a variety of cellular changes including inflammation, apoptosis, carcinogenesis, or the like [Tadashi Terui, Hachiro Tagami, Mediators of inflammation involved in UVB erythema, Journal of Dermatological Science 23 Suppl. 1 (2000) S1S5]. In order to investigate the effect of capsiate on erythema accompanied by UV-induced inflammatory response, experiment was carried out as follows using hairless mouse. Test groups were as follows: non-treated group—treated with acetone only without UV irradiation; test group A—treated with 200 μL of 1 mM capsiate dissolved in acetone without UV irradiation; UV group—treated with acetone and UV; test group B—treated with UV and 200 μL of 1 mM capsiate dissolved in acetone every 24 hours.
Acetone or capsiate diluted in acetone was applied on the back of the mouse of each test group. 1 hour later, a mask was attached on the back of the mouse such that UV could be irradiated only on an area of 1.2 cm×1.2 cm. UV was irradiated at an intensity of 400, 600 and 800 J/m^2. The degree of erythema was measured 48 hours later.

COc1cc(COC(=O)CCCC/C=C/C(C)C)ccc1O [capsiate]
proliferation of T cells induced by α-CD3a and α-CD28 (T cells): significant inhibition | UV-induced mRNA expression of MMP-2 (MMP-2): decreased | expression of MMP-9 (mRNA) in mouse skin tissue (MMP-9): decreased | degree of erythema (hairless mouse): weaker
